From the kinase profiling compilation of Christmann-Franck et al. (2016)
“And” between values parts separate entries of the source, which are not always exact repeats. Equal values may be shown once. Values belong to the compound of their own block, whether it stands above or below them.

How the values were obtained:
Test in all cases: KINOMEscan competition binding
Settings in all cases: compound 10.0 µM
ABL1 (human) = ABL1 (human) (UniProt P00519)
[1] = system: ABL1 (human), P00519 [T315I]
BMPR1A (human) = BMPR1A (human) (UniProt P36894)
CAMK1 (human) = CAMK1 (human) (UniProt Q14012)
CAMK2D (human) = CAMK2D (human) (UniProt Q13557)
Sequence of CAMK2D (human) (Q13557 whole entry, looked up): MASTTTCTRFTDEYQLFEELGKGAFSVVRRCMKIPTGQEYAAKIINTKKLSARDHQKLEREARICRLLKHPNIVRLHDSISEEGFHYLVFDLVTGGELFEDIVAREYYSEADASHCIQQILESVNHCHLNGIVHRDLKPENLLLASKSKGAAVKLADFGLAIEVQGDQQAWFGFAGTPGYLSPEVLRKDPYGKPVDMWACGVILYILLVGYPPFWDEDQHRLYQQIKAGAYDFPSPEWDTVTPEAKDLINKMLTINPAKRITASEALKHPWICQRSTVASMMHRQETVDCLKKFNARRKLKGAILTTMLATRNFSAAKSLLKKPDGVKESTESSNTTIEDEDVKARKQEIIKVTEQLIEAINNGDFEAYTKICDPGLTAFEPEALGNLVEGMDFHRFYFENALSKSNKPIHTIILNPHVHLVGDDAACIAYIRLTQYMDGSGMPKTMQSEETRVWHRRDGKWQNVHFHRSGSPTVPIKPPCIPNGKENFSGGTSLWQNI

CAMK4 (human) = CAMK4 (human) (UniProt Q16566)
CDK11A (human) = CDK11A (human) (UniProt Q9UQ88)
CDK18 (human) = CDK18 (human) (UniProt Q07002)
CSK (human) = CSK (human) (UniProt P41240)
EGFR (human) = EGFR (human) (UniProt P00533)
[2] = system: EGFR (human), P00533 [A750P; 747-749 del]
EPHB2 (human) = EPHB2 (human) (UniProt P29323)
IRAK3 (human) = IRAK3 (human) (UniProt Q9Y616)
LIMK2 (human) = LIMK2 (human) (UniProt P53671)
Sequence of LIMK2 (human) (P53671 whole entry, looked up): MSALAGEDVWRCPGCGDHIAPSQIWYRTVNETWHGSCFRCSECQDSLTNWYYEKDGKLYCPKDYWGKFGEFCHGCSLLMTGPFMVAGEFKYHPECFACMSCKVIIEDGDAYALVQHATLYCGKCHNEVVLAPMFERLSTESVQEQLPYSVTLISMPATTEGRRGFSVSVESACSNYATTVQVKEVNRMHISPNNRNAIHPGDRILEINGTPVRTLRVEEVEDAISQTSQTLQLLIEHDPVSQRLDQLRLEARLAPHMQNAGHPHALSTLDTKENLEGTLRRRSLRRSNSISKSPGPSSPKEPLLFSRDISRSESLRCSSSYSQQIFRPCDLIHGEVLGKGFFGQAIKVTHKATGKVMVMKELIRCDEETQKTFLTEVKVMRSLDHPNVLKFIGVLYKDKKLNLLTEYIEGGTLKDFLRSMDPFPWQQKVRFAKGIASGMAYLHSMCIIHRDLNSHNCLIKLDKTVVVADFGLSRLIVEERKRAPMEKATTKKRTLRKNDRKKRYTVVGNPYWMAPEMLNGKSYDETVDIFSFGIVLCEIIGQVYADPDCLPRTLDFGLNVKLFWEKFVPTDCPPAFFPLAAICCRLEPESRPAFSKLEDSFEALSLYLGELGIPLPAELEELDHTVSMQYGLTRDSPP

MAP2K6 (human) = MAP2K6 (human) (UniProt P52564)
MAP3K3 (human) = MAP3K3 (human) (UniProt Q99759)
MAP4K5 (human) = MAP4K5 (human) (UniProt Q9Y4K4)
MAPK7 (human) = MAPK7 (human) (UniProt Q13164)
MAPKAPK5 (human) = MAPKAPK5 (human) (UniProt Q8IW41)
MARK4 (human) = MARK4 (human) (UniProt Q96L34)
MET (human) = MET (human) (UniProt P08581)
MYO3A (human) = MYO3A (human) (UniProt Q8NEV4)
MYO3B (human) = MYO3B (human) (UniProt Q8WXR4)
NEK7 (human) = NEK7 (human) (UniProt Q8TDX7)
NEK9 (human) = NEK9 (human) (UniProt Q8TD19)
NTRK2 (human) = NTRK2 (human) (UniProt Q16620)
NUAK2 (human) = NUAK2 (human) (UniProt Q9H093)
Sequence of NUAK2 (human) (Q9H093 whole entry, looked up): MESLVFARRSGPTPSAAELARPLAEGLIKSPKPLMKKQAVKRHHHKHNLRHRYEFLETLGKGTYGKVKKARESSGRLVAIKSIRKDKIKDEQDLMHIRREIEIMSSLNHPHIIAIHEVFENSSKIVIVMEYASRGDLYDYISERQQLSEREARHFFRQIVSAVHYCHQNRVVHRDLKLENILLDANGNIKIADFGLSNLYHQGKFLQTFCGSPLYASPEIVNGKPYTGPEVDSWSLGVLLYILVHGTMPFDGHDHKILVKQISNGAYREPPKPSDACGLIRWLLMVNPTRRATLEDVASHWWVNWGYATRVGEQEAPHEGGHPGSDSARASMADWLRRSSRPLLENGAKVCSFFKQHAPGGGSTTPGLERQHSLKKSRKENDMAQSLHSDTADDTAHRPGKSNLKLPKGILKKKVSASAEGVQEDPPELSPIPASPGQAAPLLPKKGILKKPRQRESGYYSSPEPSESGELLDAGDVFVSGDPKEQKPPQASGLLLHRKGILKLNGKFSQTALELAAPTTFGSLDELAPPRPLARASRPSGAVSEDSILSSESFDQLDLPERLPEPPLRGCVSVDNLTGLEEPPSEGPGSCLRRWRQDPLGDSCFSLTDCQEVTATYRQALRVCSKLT

PAK1 (human) = PAK1 (human) (UniProt Q13153)
PDPK1 (human) = PDPK1 (human) (UniProt O15530)
[3] = system: PIK3CA (human), P42336 [E545K]
Sequence of PIK3CA (human), P42336 [E545K] (P42336 whole entry E545K, looked up): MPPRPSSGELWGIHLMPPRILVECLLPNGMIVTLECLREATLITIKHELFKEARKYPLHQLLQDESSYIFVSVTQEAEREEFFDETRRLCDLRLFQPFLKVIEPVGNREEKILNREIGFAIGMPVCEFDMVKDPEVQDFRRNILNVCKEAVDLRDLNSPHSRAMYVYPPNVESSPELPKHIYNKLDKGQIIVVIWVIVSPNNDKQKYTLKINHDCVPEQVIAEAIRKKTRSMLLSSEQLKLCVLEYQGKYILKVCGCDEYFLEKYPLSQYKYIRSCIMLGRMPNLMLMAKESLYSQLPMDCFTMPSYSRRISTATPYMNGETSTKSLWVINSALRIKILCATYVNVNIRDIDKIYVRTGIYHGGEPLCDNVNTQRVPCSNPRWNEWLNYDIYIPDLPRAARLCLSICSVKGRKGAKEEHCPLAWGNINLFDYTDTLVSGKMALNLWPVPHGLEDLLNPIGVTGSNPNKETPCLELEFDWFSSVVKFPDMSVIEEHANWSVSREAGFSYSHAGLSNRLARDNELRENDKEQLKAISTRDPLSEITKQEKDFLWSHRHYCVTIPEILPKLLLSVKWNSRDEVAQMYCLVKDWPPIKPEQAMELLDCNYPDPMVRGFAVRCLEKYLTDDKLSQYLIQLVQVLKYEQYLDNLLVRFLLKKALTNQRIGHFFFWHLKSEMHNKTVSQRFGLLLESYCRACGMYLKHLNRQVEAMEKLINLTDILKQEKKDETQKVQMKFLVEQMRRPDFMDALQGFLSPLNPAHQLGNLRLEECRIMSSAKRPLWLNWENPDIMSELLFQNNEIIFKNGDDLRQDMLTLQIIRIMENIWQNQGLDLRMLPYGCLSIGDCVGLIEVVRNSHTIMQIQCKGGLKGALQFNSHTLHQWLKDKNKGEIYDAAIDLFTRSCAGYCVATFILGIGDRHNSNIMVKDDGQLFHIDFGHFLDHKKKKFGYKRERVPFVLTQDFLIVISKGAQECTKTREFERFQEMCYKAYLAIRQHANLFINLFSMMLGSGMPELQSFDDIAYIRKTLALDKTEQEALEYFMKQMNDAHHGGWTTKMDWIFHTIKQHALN

PRKACB (human) = PRKACB (human) (UniProt P22694)
PRKCD (human) = PRKCD (human) (UniProt Q05655)
PRKCH (human) = PRKCH (human) (UniProt P24723)
Sequence of PRKCH (human) (P24723 whole entry, looked up): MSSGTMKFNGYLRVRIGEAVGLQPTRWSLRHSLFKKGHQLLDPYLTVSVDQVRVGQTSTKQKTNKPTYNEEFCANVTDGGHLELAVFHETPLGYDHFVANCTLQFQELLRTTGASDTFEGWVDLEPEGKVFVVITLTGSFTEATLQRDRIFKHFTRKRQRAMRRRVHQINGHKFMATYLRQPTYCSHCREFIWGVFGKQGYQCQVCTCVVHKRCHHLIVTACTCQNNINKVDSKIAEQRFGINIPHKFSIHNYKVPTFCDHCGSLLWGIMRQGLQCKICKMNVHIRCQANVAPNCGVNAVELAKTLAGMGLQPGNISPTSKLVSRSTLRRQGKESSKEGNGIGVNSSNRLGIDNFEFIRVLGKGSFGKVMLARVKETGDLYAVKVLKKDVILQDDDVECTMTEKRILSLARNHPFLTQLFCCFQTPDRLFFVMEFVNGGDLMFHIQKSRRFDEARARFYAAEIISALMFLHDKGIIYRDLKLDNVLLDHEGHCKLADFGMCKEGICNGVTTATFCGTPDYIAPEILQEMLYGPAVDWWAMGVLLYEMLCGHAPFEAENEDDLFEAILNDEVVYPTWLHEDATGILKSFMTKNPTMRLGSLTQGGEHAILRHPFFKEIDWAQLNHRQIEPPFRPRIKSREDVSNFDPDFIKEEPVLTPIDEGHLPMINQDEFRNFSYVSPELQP

PRKX (human) = PRKX (human) (UniProt P51817)
PTK2 (human) = PTK2 (human) (UniProt Q05397)
RIPK1 (human) = RIPK1 (human) (UniProt Q13546)
Sequence of RIPK1 (human) (Q13546 whole entry, looked up): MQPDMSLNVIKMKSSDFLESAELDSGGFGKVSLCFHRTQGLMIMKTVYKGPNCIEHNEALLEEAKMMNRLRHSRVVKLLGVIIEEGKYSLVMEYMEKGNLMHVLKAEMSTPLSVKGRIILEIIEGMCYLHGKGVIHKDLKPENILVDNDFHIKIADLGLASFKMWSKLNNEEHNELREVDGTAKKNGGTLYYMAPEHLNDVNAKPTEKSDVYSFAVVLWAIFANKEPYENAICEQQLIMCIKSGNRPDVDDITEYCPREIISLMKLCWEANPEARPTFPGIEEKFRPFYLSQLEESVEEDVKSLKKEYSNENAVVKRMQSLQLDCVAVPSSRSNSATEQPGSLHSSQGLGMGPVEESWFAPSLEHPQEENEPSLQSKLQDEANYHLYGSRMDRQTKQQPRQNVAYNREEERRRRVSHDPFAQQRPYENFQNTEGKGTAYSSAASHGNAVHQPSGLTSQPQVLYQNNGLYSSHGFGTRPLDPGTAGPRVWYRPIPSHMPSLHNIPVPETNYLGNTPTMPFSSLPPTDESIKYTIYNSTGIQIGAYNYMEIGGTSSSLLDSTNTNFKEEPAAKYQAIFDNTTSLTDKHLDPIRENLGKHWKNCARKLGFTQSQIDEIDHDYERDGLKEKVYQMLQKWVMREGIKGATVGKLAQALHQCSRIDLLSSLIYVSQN

ROS1 (human) = ROS1 (human) (UniProt P08922)
RPS6KA6 KD1 (human) = RPS6KA6 KD1 (human) (UniProt Q9UK32)
TEC (human) = TEC (human) (UniProt P42680)
TLK2 (human) = TLK2 (human) (UniProt Q86UE8)
TNK2 (human) = TNK2 (human) (UniProt Q07912)
WEE2 (human) = WEE2 (human) (UniProt P0C1S8)
Sequence of WEE2 (human) (P0C1S8 whole entry, looked up): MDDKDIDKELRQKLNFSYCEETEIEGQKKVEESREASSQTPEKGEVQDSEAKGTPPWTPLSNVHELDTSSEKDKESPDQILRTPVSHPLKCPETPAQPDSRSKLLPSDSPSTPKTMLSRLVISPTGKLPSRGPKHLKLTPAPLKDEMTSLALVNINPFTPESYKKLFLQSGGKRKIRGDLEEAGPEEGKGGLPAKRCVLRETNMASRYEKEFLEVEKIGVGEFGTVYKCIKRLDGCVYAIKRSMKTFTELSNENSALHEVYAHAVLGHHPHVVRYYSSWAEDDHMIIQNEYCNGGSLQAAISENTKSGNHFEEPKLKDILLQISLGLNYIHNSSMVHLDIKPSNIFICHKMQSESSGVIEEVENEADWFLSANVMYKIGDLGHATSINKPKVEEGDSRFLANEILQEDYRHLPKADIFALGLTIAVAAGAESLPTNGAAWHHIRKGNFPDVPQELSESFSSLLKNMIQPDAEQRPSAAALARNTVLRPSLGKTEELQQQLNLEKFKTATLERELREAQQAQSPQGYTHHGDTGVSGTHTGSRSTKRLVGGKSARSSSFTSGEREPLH

kinase still bound, per cent of control (ABL1 (human)): 3.2% | kinase still bound, per cent of control [1]: 3.6% | kinase still bound, per cent of control (BMPR1A (human)): 61% | kinase still bound, per cent of control (CAMK1 (human)): 100% | kinase still bound, per cent of control (CAMK2D (human)): 88% | kinase still bound, per cent of control (CAMK4 (human)): 100% | kinase still bound, per cent of control (CDK11A (human)): 100% | kinase still bound, per cent of control (CDK18 (human)): 100% | kinase still bound, per cent of control (CSK (human)): 91% | kinase still bound, per cent of control (EGFR (human)): 100% | kinase still bound, per cent of control [2]: 98% | kinase still bound, per cent of control (EPHB2 (human)): 100% | kinase still bound, per cent of control (IRAK3 (human)): 82% | kinase still bound, per cent of control (LIMK2 (human)): 100% | kinase still bound, per cent of control (MAP2K6 (human)): 100% | kinase still bound, per cent of control (MAP3K3 (human)): 0.35% | kinase still bound, per cent of control (MAP4K5 (human)): 85% | kinase still bound, per cent of control (MAPK7 (human)): 0.25% | kinase still bound, per cent of control (MAPKAPK5 (human)): 92% | kinase still bound, per cent of control (MARK4 (human)): 66% | kinase still bound, per cent of control (MET (human)): 77% | kinase still bound, per cent of control (MYO3A (human)): 85% | kinase still bound, per cent of control (MYO3B (human)): 73% | kinase still bound, per cent of control (NEK7 (human)): 100% | kinase still bound, per cent of control (NTRK2 (human)): 36% | kinase still bound, per cent of control (NUAK2 (human)): 23% | kinase still bound, per cent of control (PAK1 (human)): 100% | kinase still bound, per cent of control (PDPK1 (human)): 97% | kinase still bound, per cent of control [3]: 100% | kinase still bound, per cent of control (PRKACB (human)): 100% | kinase still bound, per cent of control (PRKCD (human)): 100% | kinase still bound, per cent of control (PRKCH (human)): 100% | kinase still bound, per cent of control (PRKX (human)): 93% | kinase still bound, per cent of control (PTK2 (human)): 75% | kinase still bound, per cent of control (RIPK1 (human)): 100% | kinase still bound, per cent of control (ROS1 (human)): 35% | kinase still bound, per cent of control (RPS6KA6 KD1 (human)): 61% | kinase still bound, per cent of control (TEC (human)): 100% | kinase still bound, per cent of control (TLK2 (human)): 100% | kinase still bound, per cent of control (TNK2 (human)): 29% | kinase still bound, per cent of control (WEE2 (human)): 70%
Compound: CN1C(=O)c2ccccc2N(C)c2nc(Nc3ccc(N4CCC(O)CC4)cc3)ncc21
kinase still bound, per cent of control (NEK9 (human)): 100%

kinase still bound, per cent of control (ABL1 (human)): 91% | kinase still bound, per cent of control [1]: 57% | kinase still bound, per cent of control (BMPR1A (human)): 100% | kinase still bound, per cent of control (CAMK1 (human)): 68% | kinase still bound, per cent of control (CAMK2D (human)): 59% | kinase still bound, per cent of control (CAMK4 (human)): 100% | kinase still bound, per cent of control (CDK11A (human)): 63% | kinase still bound, per cent of control (CDK18 (human)): 82% | kinase still bound, per cent of control (CSK (human)): 80% | kinase still bound, per cent of control (EGFR (human)): 73% and 89% | kinase still bound, per cent of control [2]: 56% | kinase still bound, per cent of control (EPHB2 (human)): 71% | kinase still bound, per cent of control (IRAK3 (human)): 100% | kinase still bound, per cent of control (LIMK2 (human)): 82% | kinase still bound, per cent of control (MAP2K6 (human)): 100% | kinase still bound, per cent of control (MAP3K3 (human)): 9.9% | kinase still bound, per cent of control (MAP4K5 (human)): 52% | kinase still bound, per cent of control (MAPK7 (human)): 48% | kinase still bound, per cent of control (MAPKAPK5 (human)): 84% | kinase still bound, per cent of control (MARK4 (human)): 100% | kinase still bound, per cent of control (MET (human)): 97% | kinase still bound, per cent of control (MYO3A (human)): 46% | kinase still bound, per cent of control (MYO3B (human)): 74% | kinase still bound, per cent of control (NEK7 (human)): 100% | kinase still bound, per cent of control (NTRK2 (human)): 86% | kinase still bound, per cent of control (NUAK2 (human)): 37% | kinase still bound, per cent of control (PAK1 (human)): 90% | kinase still bound, per cent of control (PDPK1 (human)): 100% | kinase still bound, per cent of control [3]: 37% | kinase still bound, per cent of control (PRKACB (human)): 100% | kinase still bound, per cent of control (PRKCD (human)): 32% | kinase still bound, per cent of control (PRKCH (human)): 100% | kinase still bound, per cent of control (PRKX (human)): 100% | kinase still bound, per cent of control (PTK2 (human)): 79% | kinase still bound, per cent of control (RIPK1 (human)): 82% | kinase still bound, per cent of control (ROS1 (human)): 100% | kinase still bound, per cent of control (RPS6KA6 KD1 (human)): 34% | kinase still bound, per cent of control (TEC (human)): 84% | kinase still bound, per cent of control (TLK2 (human)): 99% | kinase still bound, per cent of control (TNK2 (human)): 100% | kinase still bound, per cent of control (WEE2 (human)): 100%
Compound: O=C1NC(=O)/C(=C/c2c[nH]c(=O)c(-c3ccc(N4CCNCC4)nc3)c2)S1
kinase still bound, per cent of control (NEK9 (human)): 71%

kinase still bound, per cent of control (ABL1 (human)): 99% | kinase still bound, per cent of control [1]: 97% | kinase still bound, per cent of control (BMPR1A (human)): 90% | kinase still bound, per cent of control (CAMK1 (human)): 100% | kinase still bound, per cent of control (CAMK2D (human)): 100% | kinase still bound, per cent of control (CAMK4 (human)): 100% | kinase still bound, per cent of control (CDK11A (human)): 99% | kinase still bound, per cent of control (CDK18 (human)): 100% | kinase still bound, per cent of control (CSK (human)): 100% | kinase still bound, per cent of control (EGFR (human)): 100% | kinase still bound, per cent of control [2]: 100% | kinase still bound, per cent of control (EPHB2 (human)): 94% | kinase still bound, per cent of control (IRAK3 (human)): 100% | kinase still bound, per cent of control (LIMK2 (human)): 100% | kinase still bound, per cent of control (MAP2K6 (human)): 100% | kinase still bound, per cent of control (MAP3K3 (human)): 100% | kinase still bound, per cent of control (MAP4K5 (human)): 100% | kinase still bound, per cent of control (MAPK7 (human)): 100% | kinase still bound, per cent of control (MAPKAPK5 (human)): 100% | kinase still bound, per cent of control (MARK4 (human)): 93% | kinase still bound, per cent of control (MET (human)): 100% | kinase still bound, per cent of control (MYO3A (human)): 100% | kinase still bound, per cent of control (MYO3B (human)): 74% | kinase still bound, per cent of control (NEK7 (human)): 89% | kinase still bound, per cent of control (NTRK2 (human)): 53% | kinase still bound, per cent of control (NUAK2 (human)): 70% | kinase still bound, per cent of control (PAK1 (human)): 100% | kinase still bound, per cent of control (PDPK1 (human)): 100% | kinase still bound, per cent of control [3]: 91% | kinase still bound, per cent of control (PRKACB (human)): 100% | kinase still bound, per cent of control (PRKCD (human)): 100% | kinase still bound, per cent of control (PRKCH (human)): 86% | kinase still bound, per cent of control (PRKX (human)): 94% | kinase still bound, per cent of control (PTK2 (human)): 100% | kinase still bound, per cent of control (RIPK1 (human)): 100% | kinase still bound, per cent of control (ROS1 (human)): 100% | kinase still bound, per cent of control (RPS6KA6 KD1 (human)): 100% | kinase still bound, per cent of control (TEC (human)): 100% | kinase still bound, per cent of control (TLK2 (human)): 100% | kinase still bound, per cent of control (TNK2 (human)): 100% | kinase still bound, per cent of control (WEE2 (human)): 100%
Compound: CN1C(=O)c2ccccc2N(C)c2nc(NS(=O)(=O)c3ccc(N)cc3)ncc21
kinase still bound, per cent of control (NEK9 (human)): 100%
